The target of series [1] is T1, CbFDH (Candida boidinii formate dehydrogenase) ([Candida] boidinii, UniProt O13437).
T1 construct: gene FDH1; no tag told
T1 sequence (O13437 1-364): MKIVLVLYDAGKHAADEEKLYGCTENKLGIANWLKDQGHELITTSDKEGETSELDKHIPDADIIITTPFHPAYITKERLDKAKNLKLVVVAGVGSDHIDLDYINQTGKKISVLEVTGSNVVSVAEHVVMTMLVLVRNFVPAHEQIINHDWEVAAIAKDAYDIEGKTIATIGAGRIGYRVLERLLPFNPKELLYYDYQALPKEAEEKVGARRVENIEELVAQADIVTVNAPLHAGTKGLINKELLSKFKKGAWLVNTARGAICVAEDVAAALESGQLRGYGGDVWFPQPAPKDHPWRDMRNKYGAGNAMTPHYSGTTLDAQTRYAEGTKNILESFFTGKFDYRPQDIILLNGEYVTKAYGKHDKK
The experiment in a line: steady-state inhibition kinetics. Type of series: biochemical. An excerpt:
steady-state inhibition kinetics on CbFDH (Candida boidinii formate dehydrogenase)

Substrate in series [2]: O=CO
The experiment in a line: steady-state kinetics. To be noted: 0.1 M potassium phosphate pH 7.5, 25 °C, co-substrate NAD+. Type of series: biochemical, [Candida] boidinii. An excerpt:
steady-state kinetics on CbFDH (Candida boidinii formate dehydrogenase)

Where two headings read alike, the source gives them in different places.

`Nc1ncnc2c1ncn2[C@@H]1O[C@H](COP(=O)(O)O)[C@@H](O)[C@H]1O` [AMP]: the Ki – broadly, the equilibrium dissociation constant of an inhibitor or competing ligand from its target – in series [1] (read-out: Ki (mM) (AMP)) was determined as 1.6 ± 0.1 mM.

Regarding `NC(=O)C1=CN([C@@H]2O[C@H](COP(=O)(O)OP(=O)(O)OC[C@H]3O[C@@H](n4cnc5c(N)ncnc54)[C@H](O)[C@@H]3O)[C@@H](O)[C@H]2O)C=CC1` [NADH], the Ki in series [1] (read-out: Ki (mM) (NADH)) was determined as 0.03 ± 0.005 mM.

B1: CbFDH (Candida boidinii formate dehydrogenase) ([Candida] boidinii) (protein)
chain: T1 sequence (O13437 1-364)
notes: no tag told
As for B1, the Km (commonly the concentration of substrate that gives half-maximal velocity) in series [2] came out at 2400 ± 100 µM.

The record behind these values is PMC7956174, “Probing the Role of the Conserved Arg174 in Formate Dehydrogenase by Chemical Modification and Site-Directed Mutagenesis” (Molecules, 2021).
